In paper PMC6614837 (Nucleic Acids Research, 2019):
“Also recorded” adds a separate entry of the source.

How the values were obtained:
P protein = biological target: T1, P protein (Thermotoga maritima, UniProt Q9X1H4); assay: Binding hindrance of the 5′ RNA leader to the P protein (BLI); design: species or system T. maritima; settings: compound 100 μM, 5′ RNA leader 5 μM
T1 construct: GST (cleaved yes); made in house; host or cells: E. coli BL21(DE3)pLysS
T1 sequence (Q9X1H4 1-117): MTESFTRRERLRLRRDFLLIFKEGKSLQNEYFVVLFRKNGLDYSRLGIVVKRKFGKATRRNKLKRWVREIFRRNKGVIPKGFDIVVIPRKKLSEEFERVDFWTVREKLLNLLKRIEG
Protocol: A 5′ RNA leader sequence with 10-bases 5′-GGAAAAAGAU-3′ was purchased from IDT and used at a concentration of 5 μM. This sequence is the same used to obtain the crystal structure of the RNase P holoenzyme ([19]). The His-tagged P protein was immobilized on Ni-NTA biosensors at 0.05 mg/ml (3.4 μM). […] The steps performed on the assay and their periods were: P protein immobilization (400 s), wash (100 s), baseline […] (1000 rpm), compound association (800 s), compound dissociation (200 s) (500 rpm), baseline (100 s), 5′ leader association (200 s), 5′ leader dissociation (200 s) (1000 rpm). The assay was performed at 30°C. The compounds were used at 100 μM throughout. All assay steps were performed in 20 mM HEPES pH 7.4, 100 mM ammonium acetate, 10 mM MgCl2, 5% DMSO.
5 ′ RNA leader. (A) Experimental design of 5′ RNA leader binding hindrance experiments. Figures B-F are based on the analysis region depicted in panel A, where association and dissociation of the 5′ RNA leader to the P protein (TmP) is measured over time. P protein at 3.5 µM was immobilized on Ni-NTA biosensors for 300 s, while compounds were assayed at 100 µM and the […]
binding, in contrast with hematein (E) and purpurin (F).
(1 picture or pasted object on this page, not shown here)

RNase P holoenzyme = biological target: T2, RNase P holoenzyme (Thermotoga maritima, UniProt Q9X1H4); assay: Gel-based activity assay, bipartite pre-tRNA substrate, holoenzyme; type: biochemical, T. maritima; settings: 100 mM AmOAc, 10 mM MgCl2
T2 construct: GST (cleaved yes); made in house; host or cells: E. coli BL21(DE3)pLysS
T2 sequence (Q9X1H4 1-117): T1 sequence (Q9X1H4 1-117)
Protocol: For gel-based activity assays, reactions were prepared as described in the previous section (fluorescence activity assay), incubated for 1–15 min at 37–50°C, then loaded onto a denaturing 7 M urea–20% acrylamide gel in the case of the Mh substrate or 19% acrylamide (40% acrylamide/bisacrylamide 38.5:1.5) for the bipartite pre-tRNA substrate. The activity conditions for the gel reported in Figure 3A, to monitor the cleavage of the holoenzyme and P RNA, were under 100 mM AmOAc and 10 mM MgCl2. The gels (13 × 16 × 0.15 cm) were electrophoresed at 20 V/cm for 2–3 h. UV shadowing or ethidium bromide staining was used to visualize RNA cleavage. Detection of minihelix fluorescence was achieved without staining using a UV lamp with excitation at ∼254 nm.
Figure 3. The inhibitors purpurin and hematein bind to the holoenzyme. (A) Top. […] Bottom. […] (B) The relative affinities of the inhibitors for the P RNA or the holoenzyme differ. Binding sensorgrams obtained by biolayer interferometry (BLI). P RNA or RNase P holoenzyme was immobilized on super streptavidin (SSA) biosensors through a 5′-biotinylated RNA oligonucleotide complementary to a region on the P1 stem of P RNA (see Materials and Methods). […] In contrast, gentian violet binds not only to P RNA but also to the Mh substrate (Supplementary Figure S16). […]

P RNA = assay: Biolayer interferometry binding to immobilized P RNA; design: species or system T. maritima; settings: BLI, P RNA on SSA biosensors via biotinylated oligonucleotide
Protocol: Real-time binding assays of the holoenzyme, P RNA, P protein, the substrate minihelix and the 5′-leader to individual compounds were performed by biolayer interferometry using an Octet RED96 system (ForteBio). For the holoenzyme or P RNA, a 5′ biotinylated RNA oligonucleotide with the sequence 5′biotin-CAUUCCAGACGAU was immobilized on Super Streptavidin (SSA) biosensors. Then, a modified P RNA or holoenzyme was added. The P RNA modification consisted of a sequence with part of the P1 stem sequence complementary to the biotinylated oligonucleotide (AUCGUCUGGA) (Supplementary Figure S23A). P1 is far from the active site or other regions involved in specific interactions (Supplementary Figure S23B) ([19]). The activity of this construct was indistinguishable from the wild-type holoenzyme. Alternatively, the holoenzyme was immobilized through the His-tagged P protein from T. maritima at 0.05 mg/ml (3.4 μM) on Ni-NTA biosensors. Control biosensors were used to subtract non-specific binding of compounds to the biosensor surface. All assay steps (immobilization, wash, baseline, association, and dissociation) were performed in 20 mM HEPES pH 7.4, 100 mM ammonium acetate, 10 mM MgCl2, 2.5% DMSO. The assays were performed on black bottom 96-well microplates (Greiner Bio-One 655209) in a total volume of 200 μl, at 30°C with orbital shaking at 1000 rpm. Experiments were controlled with the software Data Acquisition 8.2 (ForteBio, Inc.). Kinetic binding parameters were calculated using Data Analysis 8.2 (ForteBio, Inc.). After subtraction of reference biosensors, the binding curves were aligned to the X- and Y-axis and the association-dissociation inter-step curve in order to get a common baseline for the association and dissociation phases.
Figure 3. The inhibitors purpurin and hematein bind to the holoenzyme. (A) Top. […] Bottom. […] (B) The relative affinities of the inhibitors for the P RNA or the holoenzyme differ. Binding sensorgrams obtained by biolayer interferometry (BLI). […]

[1] = biological target: T3, RNase P holoenzyme from T. maritima (Thermotoga maritima, UniProt Q9X1H4); assay: End-point urea-PAGE RNase P activity assay with canonical pre-tRNA substrate; type: biochemical; settings: 10% DMSO
T3 construct: made in house
T3 sequence (Q9X1H4 1-117): T1 sequence (Q9X1H4 1-117)
Protocol: Supplementary Figure 11 . End-point urea-PAGE RNase P activity assays using a canonical pre-tRNA substrate are in agreement with the fluorescence inhibition experiments. RNase P holoenzyme from T. maritima is inhibited by the four validated hits, as observed in an 18% urea- PAGE end-point assay. RNase P holoenzyme was incubated in the presence of 10% DMSO (+) or different concentrations of compound for 30 min at 37°C. See also Supplementary Figure […]
Supplementary Figure 12. End-point urea-PAGE RNase P activity assays using a canonical pre-tRNA substrate are in agreement with the fluorescence inhibition experiments using the minihelix substrate. Compound-dependent disappearance of the pre-tRNA substrate, with a […]
biological substrate for the inhibitors (juglone and purpurin). The assays were performed under the following conditions: 66 nM RNase P holoenzyme, in a total volume of 20 µL in activity buffer (33 mM Tris, 66 mM HEPES pH 7.4, 400 mM ammonium acetate, 100 mM MgCl2) were incubated in the presence of 10% DMSO (+) or different concentrations of compound for 30 min at 37° C. Then, pre-tRNA was added to a final concentration of 1.6 µM and the reaction was incubated at 55° C for 25 min before gel loading. […]

SMILES	Hindrance of 5′ RNA leader binding to the P protein (P protein)	Hindrance of 5′ RNA leader binding to the P protein (P protein; listed as hematein)	Inhibition of the holoenzyme reaction (RNase P holoenzyme)	Binding to P RNA (P RNA)	Inhibition of pre-tRNA cleavage (urea-PAGE end-point) [1]	Hindrance of 5′ RNA leader binding to the P protein (P protein; listed as purpurin)
O=C1C=C2CC3(O)COc4c(ccc(O)c4O)C3=C2C=C1O (centres unmarked) [Hematein, 3,4,6a,10-tetrahydroxy-6a,7-dihydroindeno[2,1-c]chromen-9(6H)-one]	hinder the binding of the P protein	displayed leader-binding hindrance	inhibit the reaction catalyzed by the RNase P holoenzyme	binds only slightly to P RNA		
O=C1C=CC(=O)c2c(O)cccc21 [Juglone, 5-hydroxy-1,4-naphthoquinone]	do not impede the leader binding				confirms the inhibition	
O=C1c2ccccc2C(=O)c2c(O)c(O)cc(O)c21 [Purpurin, 1,2,4-trihydroxyanthraquinone]	hinders the binding of the P protein to the 5′ RNA leader		inhibit the reaction catalyzed by the RNase P holoenzyme	does not bind to P RNA	confirms the inhibition	hinder the binding of the P protein; also recorded: interferes with the binding of the leader to the P protein
